Patent USRE39061E1, “Pharmaceutical formulations comprising labdanes for the treatment of tumors or leukemias” (Medexis S.A., priority 1999, dated 2006)

Columns and labels:
PBML (resting) = format: cell-based, human; conditions: for GI50 / TGI: normal PBML, resting, 48 h, MTT
Description: (§1) Human cancer cell lines were used for in vitro drug testing. The cells were maintained as exponentially proliferating suspension cultures in RPMI-1640 medium (supplemented with 10% heat inactivated foetal calf serum, 2mM L-Glutamine and 50 μg/ml gentamycin and incubated at 37° C., in a humidified atmosphere with 5% CO2. Peripheral blood mononuclear cells (PBML) were also isolated from normal donors using the Ficoll-Hypaque method and cultured as the cancer cell lines.
(§2) To determine the cytotoxicity, log-phase cells from each cell line, resting and activated PBML (1×10^6 cells/ml), were incubated with free compound or liposomal formulation for 48 h, in 96-well flat-bottomed micro plates.
(§3) Cells were added at the appropriate inoculation densities in 96-well micro titer plates and preincubated for 24 hours in a moist atmosphere of 5% CO2 in air at 37 °C, to allow stabilization prior to addition of the test compounds. To determine their activity, the free compound or liposomal formulation were added at the same time to each cell line. Cultures, where an equivalent amount of DMSO was added, used as controls. After the addition of the test agents the cells were cultured in micro plates for an additional 48 h under the same conditions. Each test agent was inoculated at five concentrations (10−4 to 10−8 M). The activity for each compound on each cell line was determined by the MTT method with modifications. Briefly 4 h before the end of the 48 h incubation period, MTT (3-(4,5-dimethylthiazol-2-yl)-2-5 diphenyl tetrazolium bromide, Sigma-Aldrich) dissolved in PBS (Phosphate buffered saline), was added in the cell cultures to give a final concentration of 50 μg/ml. At the end of the 48 h incubation period, DMSO was added to the wells and the optical density was measured with an ANTHOS HT II Microelisa reader, using a test wavelength of 550 nm.
(§4) The data represent the means of experiments done in triplicates and were analyzed using a two-tailed Student's t-test.
(§5) Three parameters GI50, TGI and LC50 were estimated using the MTT method. […] TGI is the concentration of the test agent where 100*(T−T0)/(C−TO)=0 and measures the cytostatic effect. Finally LC50 is the concentration of the drug where 100*(T−TO)/TO=−50 and measures the cytotoxic effect of the drug. At the above formulas used for the calculation of the three parameters, T is the optical density of the test well after a 48 h period of exposure to test compound; TO is the optical density at the time zero (when the drug is added) and C is the optical density of the control well (cells incubated for 48 h with no additives).
(§6) The leukemic cell lines CCRF-CEM, MOLT4, HUT78 (T cells), RPMI 8226 (B cell line), HL60 (promyelocytic cell line), K562 (proerythrocytes) and the multi-drug resistant (MDR) cell lines: CCRF-CEM/C2, HL60/MXl and HL601MX2 were used. All cell lines were grown and tested for viability as described above. Free compounds and encapsulated (as described above) were tested according to the method described under cytotoxic activity (see Biological activity, above).

PBML (stimulating) = format: cell-based, human; conditions: for GI50 / TGI: normal PBML, activated by 5 μg/ml PHA-P, 48 h, MTT
Description: as §1, §2, §3, §4, §5, §6

HL60 = test: Cytotoxic activity, MTT method, 48 h; format: cell-based; conditions: for GI50 / TGI: HL60, 48 h, MTT
Description: as §1, §2
(§7) The initial inoculation densities for each cell line are presented in table (1) and were determined taking into account cell mass and growth rate (Monks A., Scudiero, D., Skehan P., Shomaker R., Pauli K., Vistica D., Hose C et al. Feasibility of a High-Flux Anticancer Drug screen using a diverse panel of cultured human tumor cell lines. JNCI 1991; 83(11): 757-766 Paul K D, Shomaker R H, Hodes L, Monks A, Scudiero D A, Rubinstein L., Plowman J and Boyd M R. Tumor Cell Lines: Development of Mean Graph and Compare Algorithm. JNCI 1989; 81(14): 1088-1092). Viability of the cells was assessed by trypan blue dye exclusion, at the beginning of the experiment and was always greater than 98%.
as §3, §4, §5, §6

RPMI 8226 = test: Cytotoxic activity, MTT method, 48 h; format: cell-based; conditions: for GI50 / TGI: RPMI 8226, 48 h, MTT
Description: as §1, §2, §7, §3, §4, §5, §6

HUT78 = test: Cytotoxic activity, MTT method, 48 h; format: cell-based; conditions: for GI50 / TGI: HUT78, 48 h, MTT
Description: as §1, §2, §7, §3, §4, §5, §6

CCRF-CEM = test: Cytotoxic activity, MTT method, 48 h; format: cell-based; conditions: for GI50 / TGI: CCRF-CEM, 48 h, MTT
Description: as §1, §2, §7, §3, §4, §5, §6

K562 = test: Cytotoxic activity, MTT method, 48 h; format: cell-based; conditions: for GI50 / TGI: K562, 48 h, MTT
Description: as §1, §2, §7, §3, §4, §5, §6

MOLT4 = test: Cytotoxic activity, MTT method, 48 h; format: cell-based; conditions: for GI50 / TGI: MOLT4, 48 h, MTT
Description: as §1, §2, §7, §3, §4, §5, §6

[1] = tested on: leukemic cell lines (MEAN); test: Cytotoxic activity, MTT method, mean over the leukemic cell lines; format: cell-based; conditions: for GI50 / TGI: MEAN of the nine leukemic cell lines
Description: as §1, §2, §7, §3, §4, §5, §6

CCRF-CEM/C2 = format: cell-based; conditions: for GI50 / TGI: CCRF-CEM/C2 (MDR), 48 h, MTT
Description: as §1, §2
as §7, with “1088-1092).” for “1088-1092). Viability of the cells was assessed by trypan blue dye exclusion, at the beginning of the experiment and was always greater than 98%.”
as §3, §4, §5, §6
(§8) The Resistant Factor (RF) is defined as follows: GI50 of the MDR daughter cell line/GI50 of the parental cell line. The (−) represents a parental cell line more resistant than the daughter MDR line.

HL601/MX2 = format: cell-based; conditions: for GI50 / TGI: HL601/MX2 (MDR), 48 h, MTT
Description: as §1, §2
as §7, with “1088-1092).” for “1088-1092). Viability of the cells was assessed by trypan blue dye exclusion, at the beginning of the experiment and was always greater than 98%.”
as §3, §4, §5, §6, §8

HL60/MX1 = format: cell-based; conditions: for GI50 / TGI: HL60/MX1 (MDR), 48 h, MTT
Description: as §1, §2
as §7, with “1088-1092).” for “1088-1092). Viability of the cells was assessed by trypan blue dye exclusion, at the beginning of the experiment and was always greater than 98%.”
as §3, §4, §5, §6, §8

SF-268 (CNS cancer) = test: Growth percentages at 100 μM; format: cell-based, human
Description: as §1, §3
(§9) Three parameters GI50, TGI and LC50 were estimated using the MTT method. […] TGI is the concentration of the test agent where 100*(T−T0)/(C−TO)=0 and measures the cytostatic effect. Finally LC50 is the concentration of the drug where 100*(T−TO)/TO=−50 and measures the cytotoxic effect of the drug. […]

NCI-H460 (Lung cancer) = test: Growth percentages at 100 μM; format: cell-based, human
Description: as §1, §3, §9

MCF-7 (Breast cancer) = test: Growth percentages at 100 μM; format: cell-based, human
Description: as §1, §3, §9

Compound	CC50 (PBML (resting)) [µM]	GI50 (PBML (resting)) [µM]	TGI (PBML (resting))	CC50 (PBML (stimulating)) [µM]	GI50 (PBML (stimulating)) [µM]	TGI (PBML (stimulating))	CC50 (HL60) [µM]	GI50 (HL60) [µM]	TGI (HL60) [µM]	CC50 (RPMI 8226) [µM]	GI50 (RPMI 8226) [µM]	TGI (RPMI 8226) [µM]	CC50 (HUT78) [µM]	GI50 (HUT78) [µM]	TGI (HUT78) [µM]	CC50 (CCRF-CEM) [µM]	GI50 (CCRF-CEM) [µM]	TGI (CCRF-CEM) [µM]	CC50 (K562) [µM]	GI50 (K562) [µM]	also measured
CC(=CCO)CC[C@@H]1[C@@]2(C)CCCC(C)(C)[C@@H]2CC[C@@]1(C)O [Label-13-ene-8, 15 diol, labd-13-ene-8α,15-diol]	> 100	> 100	>>100 μM	> 100	66.2	>>100 μM	91.8	47.7	69.74	118	42.2	80.08	200	109	186	200	75.7	141.08	200	87.1	TGI (K562): 159 µM; CC50 (MOLT4): 120 µM; GI50 (MOLT4): 32.3 µM; TGI (MOLT4): 76.22 µM; CC50 [1]: 139 µM; GI50 [1]: 59.1 µM; TGI [1]: 104.48 µM; CC50 (CCRF-CEM/C2): 108 µM; GI50 (CCRF-CEM/C2): 42.3 µM; TGI (CCRF-CEM/C2): 74.96 µM; CC50 (HL601/MX2): 102 µM; GI50 (HL601/MX2): 43.8 µM; TGI (HL601/MX2): 73.14 µM; CC50 (HL60/MX1): 108 µM; GI50 (HL60/MX1): 52.3 µM; TGI (HL60/MX1): 80.1 µM; Growth Percentages (SF-268 (CNS cancer)): −88%; Growth Percentages (NCI-H460 (Lung cancer)): −80%; Growth Percentages (MCF-7 (Breast cancer)): −89%
CC(=O)OCC=C(C)CC[C@@H]1[C@@]2(C)CCCC(C)(C)[C@@H]2CC[C@@]1(C)O [Label-13-ene-8, 15-yl acetate, labd-13-ene,8α-ol,15-yl acetate]	> 100	> 100	>>100 μM	> 100	65.9	>>100 μM	89.3	44.8	67.04	95.5	41.3	68.43	200	95.2	164.00	187	69.1	128.17	200	78.2	TGI (K562): 162.00 µM; CC50 (MOLT4): 137 µM; GI50 (MOLT4): 42.8 µM; TGI (MOLT4): 89.95 µM; CC50 [1]: 136 µM; GI50 [1]: 56.8 µM; TGI [1]: 100.94 µM; CC50 (CCRF-CEM/C2): 111 µM; GI50 (CCRF-CEM/C2): 46.8 µM; TGI (CCRF-CEM/C2): 78.83 µM; CC50 (HL601/MX2): 101 µM; GI50 (HL601/MX2): 38.8 µM; TGI (HL601/MX2): 69.90 µM; CC50 (HL60/MX1): 106 µM; GI50 (HL60/MX1): 53.9 µM; TGI (HL60/MX1): 80.14 µM
C=C[C@](C)(O)CC[C@@H]1[C@@]2(C)CCCC(C)(C)[C@@H]2CC[C@@]1(C)O [Label-14-ene-8, 13 diol, labd-14-ene-8,13-diol]	93.1	34.6	63.8 µM	89	33.1	61.0 µM	80	41.5	60.72	70.7	14.9	42.84	78.5	33.7	56.09	85	35	60.00	79.3	35.6	TGI (K562): 57.45 µM; CC50 (MOLT4): 77.7 µM; GI50 (MOLT4): 31.6 µM; TGI (MOLT4): 54.66 µM; CC50 [1]: 78.3 µM; GI50 [1]: 32.9 µM; TGI [1]: 55.58 µM; CC50 (CCRF-CEM/C2): 75.8 µM; GI50 (CCRF-CEM/C2): 29.1 µM; TGI (CCRF-CEM/C2): 52.41 µM; CC50 (HL601/MX2): 76.8 µM; GI50 (HL601/MX2): 31.4 µM; TGI (HL601/MX2): 54.12 µM; CC50 (HL60/MX1): 80.9 µM; GI50 (HL60/MX1): 42.9 µM; TGI (HL60/MX1): 61.90 µM
